Assay results taken from patent publication US12440472B2, “Stable tryptamine oral films” (INTELGENX CORP., priority 2021, dated 2025).

Assays:
[1] = Stability studies comparing phosphoric acid with citric acid and antioxidants/stabilizers (films stored at 50 C); settings: compared with film made with only phosphoric acid, 50 C. for two weeks
[2] = administered orally; cited from earlier work

Row | Compound | degradation products / impurity profile of psilocybin film with stabilizer or acid [1] | degradation products / impurity profile of psilocybin film with stabilizer or acid ([1]; listed as copper) | drug absorbed into the bloodstream [2] | time of maximum plasma concentration [2]
1 | Cc1cc(C(C)(C)C)c(O)c(C(C)(C)C)c1 [BHT] | promoting the degradation | – | – | –
2 | [Cl][Cu][Cl] [copper chloride, Copper (II) chloride] | no effect | promoting the degradation | – | –
3 | CN(C)CCc1c[nH]c2cccc(OP(=O)(O)O)c12 [psilocybin] | – | – | about 50% | approximately 80 minutes
4 | vitamin E | promoting the degradation | – | – | –
